Test results as given in ChEMBL document CHEMBL3627608, “Crystal structures of human RIP2 kinase catalytic domain complexed with ATP-competitive inhibitors: Foundations for understanding inhibitor selectivity” (Bioorg Med Chem, 2015).

Key:
[1] = target: T1, Myotonin-protein kinase (Homo sapiens) (UniProt Q09013); experiment: Inhibition of DMPK (unknown origin) at 10 uM after 120 mins P33 radiolabeled kinase activity assay
T1 sequence (whole entry): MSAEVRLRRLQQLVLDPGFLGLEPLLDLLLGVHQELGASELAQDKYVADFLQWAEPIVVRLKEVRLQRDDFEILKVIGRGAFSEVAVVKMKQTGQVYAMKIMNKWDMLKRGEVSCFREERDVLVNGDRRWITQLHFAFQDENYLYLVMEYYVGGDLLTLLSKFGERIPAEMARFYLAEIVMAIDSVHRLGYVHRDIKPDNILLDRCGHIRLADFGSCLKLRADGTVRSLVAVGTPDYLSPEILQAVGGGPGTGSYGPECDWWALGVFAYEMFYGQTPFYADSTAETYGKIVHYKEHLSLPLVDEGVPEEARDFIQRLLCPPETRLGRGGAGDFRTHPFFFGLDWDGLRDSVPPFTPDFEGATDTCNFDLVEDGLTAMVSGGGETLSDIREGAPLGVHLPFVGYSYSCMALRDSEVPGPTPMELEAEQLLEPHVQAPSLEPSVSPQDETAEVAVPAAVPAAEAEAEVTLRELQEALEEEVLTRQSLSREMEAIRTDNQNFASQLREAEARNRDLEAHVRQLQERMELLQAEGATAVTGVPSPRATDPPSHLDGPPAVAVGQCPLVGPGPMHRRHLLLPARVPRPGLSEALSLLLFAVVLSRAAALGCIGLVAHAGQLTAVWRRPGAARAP

[2] = target: Vascular endothelial growth factor receptor 1 (Homo sapiens) (UniProt P17948); experiment: Inhibition of FLT1 (unknown origin) at 10 uM after 120 mins P33 radiolabeled kinase activity assay
[3] = target: T2, Beta-adrenergic receptor kinase 1 (Homo sapiens) (UniProt P25098); experiment: Inhibition of GRK2 (unknown origin) at 10 uM after 120 mins P33 radiolabeled kinase activity assay
T2 sequence (whole entry): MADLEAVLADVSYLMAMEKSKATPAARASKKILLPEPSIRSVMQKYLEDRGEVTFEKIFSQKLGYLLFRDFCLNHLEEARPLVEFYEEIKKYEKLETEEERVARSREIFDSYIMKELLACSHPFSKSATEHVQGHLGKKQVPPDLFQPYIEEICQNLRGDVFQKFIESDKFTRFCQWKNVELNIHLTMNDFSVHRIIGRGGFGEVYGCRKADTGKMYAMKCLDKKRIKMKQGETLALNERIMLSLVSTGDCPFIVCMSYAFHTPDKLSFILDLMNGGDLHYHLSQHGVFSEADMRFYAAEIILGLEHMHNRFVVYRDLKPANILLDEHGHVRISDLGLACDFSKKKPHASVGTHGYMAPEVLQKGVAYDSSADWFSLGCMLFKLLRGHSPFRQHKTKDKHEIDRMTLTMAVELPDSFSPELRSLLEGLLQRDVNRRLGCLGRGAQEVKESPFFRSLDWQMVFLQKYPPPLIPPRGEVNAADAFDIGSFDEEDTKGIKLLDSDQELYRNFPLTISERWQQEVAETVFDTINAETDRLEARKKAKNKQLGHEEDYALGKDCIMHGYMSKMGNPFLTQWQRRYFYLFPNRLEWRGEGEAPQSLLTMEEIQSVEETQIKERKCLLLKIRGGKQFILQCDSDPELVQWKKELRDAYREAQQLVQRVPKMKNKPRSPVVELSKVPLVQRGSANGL

[4] = target: Glycogen synthase kinase-3 alpha (Homo sapiens) (UniProt P49840); experiment: Inhibition of GSK3alpha (unknown origin) at 10 uM after 120 mins P33 radiolabeled kinase activity assay
[5] = target: T3, Serine/threonine-protein kinase LATS1 (Homo sapiens) (UniProt O95835); experiment: Inhibition of LATS (unknown origin) at 10 uM after 120 mins P33 radiolabeled kinase activity assay
T3 sequence (whole entry): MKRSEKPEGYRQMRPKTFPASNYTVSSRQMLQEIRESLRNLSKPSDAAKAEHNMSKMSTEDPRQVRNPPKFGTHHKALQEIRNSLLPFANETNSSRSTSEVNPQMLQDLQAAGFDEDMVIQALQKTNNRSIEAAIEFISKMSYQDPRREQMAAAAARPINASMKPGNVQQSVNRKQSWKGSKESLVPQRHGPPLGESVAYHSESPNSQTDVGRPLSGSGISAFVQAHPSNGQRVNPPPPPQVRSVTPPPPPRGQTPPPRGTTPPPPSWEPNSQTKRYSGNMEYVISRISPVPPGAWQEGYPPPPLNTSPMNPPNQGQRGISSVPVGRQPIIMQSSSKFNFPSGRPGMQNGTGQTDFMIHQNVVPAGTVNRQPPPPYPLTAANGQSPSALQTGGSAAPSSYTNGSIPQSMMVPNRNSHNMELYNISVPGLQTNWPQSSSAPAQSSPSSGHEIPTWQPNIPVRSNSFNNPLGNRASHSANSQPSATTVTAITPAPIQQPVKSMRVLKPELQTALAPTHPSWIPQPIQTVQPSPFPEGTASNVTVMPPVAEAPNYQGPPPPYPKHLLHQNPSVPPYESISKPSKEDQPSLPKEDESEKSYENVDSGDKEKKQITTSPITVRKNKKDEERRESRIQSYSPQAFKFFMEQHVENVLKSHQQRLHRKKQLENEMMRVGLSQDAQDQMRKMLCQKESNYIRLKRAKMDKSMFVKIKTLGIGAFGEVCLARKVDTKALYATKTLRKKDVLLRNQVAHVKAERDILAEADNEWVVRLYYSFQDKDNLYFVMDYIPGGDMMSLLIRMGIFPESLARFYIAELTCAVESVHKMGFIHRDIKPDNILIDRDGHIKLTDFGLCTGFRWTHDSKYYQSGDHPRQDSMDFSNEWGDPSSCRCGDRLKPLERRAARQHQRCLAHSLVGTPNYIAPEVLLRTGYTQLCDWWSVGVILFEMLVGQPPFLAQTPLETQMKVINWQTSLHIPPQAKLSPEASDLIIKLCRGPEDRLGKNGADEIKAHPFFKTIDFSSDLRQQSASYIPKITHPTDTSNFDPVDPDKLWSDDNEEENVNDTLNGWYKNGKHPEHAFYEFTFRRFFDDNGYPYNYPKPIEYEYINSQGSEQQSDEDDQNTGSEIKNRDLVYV

[6] = target: NT-3 growth factor receptor (Homo sapiens) (UniProt Q16288); experiment: Inhibition of TRKC (unknown origin) at 10 uM after 120 mins P33 radiolabeled kinase activity assay
[7] = target: Cyclin-dependent kinase 1/cyclin B1 (Homo sapiens) (UniProt P06493+P14635); experiment: Inhibition of CDK1/cyclin B (unknown origin) at 10 uM after 120 mins P33 radiolabeled kinase activity assay; assay type: protein-complex assay
Chain of Cyclin-dependent kinase 1/cyclin B1 (Homo sapiens) (P06493 whole entry, looked up): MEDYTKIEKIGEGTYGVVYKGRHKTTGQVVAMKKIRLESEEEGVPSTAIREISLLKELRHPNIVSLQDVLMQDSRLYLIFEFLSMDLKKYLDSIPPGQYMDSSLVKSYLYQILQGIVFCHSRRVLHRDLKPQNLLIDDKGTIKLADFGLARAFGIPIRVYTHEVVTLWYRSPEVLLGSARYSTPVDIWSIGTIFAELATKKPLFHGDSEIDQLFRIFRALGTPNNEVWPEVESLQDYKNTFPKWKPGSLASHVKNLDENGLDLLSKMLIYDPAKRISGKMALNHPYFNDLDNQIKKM
Chain of Cyclin-dependent kinase 1/cyclin B1 (Homo sapiens) (P14635 whole entry, looked up): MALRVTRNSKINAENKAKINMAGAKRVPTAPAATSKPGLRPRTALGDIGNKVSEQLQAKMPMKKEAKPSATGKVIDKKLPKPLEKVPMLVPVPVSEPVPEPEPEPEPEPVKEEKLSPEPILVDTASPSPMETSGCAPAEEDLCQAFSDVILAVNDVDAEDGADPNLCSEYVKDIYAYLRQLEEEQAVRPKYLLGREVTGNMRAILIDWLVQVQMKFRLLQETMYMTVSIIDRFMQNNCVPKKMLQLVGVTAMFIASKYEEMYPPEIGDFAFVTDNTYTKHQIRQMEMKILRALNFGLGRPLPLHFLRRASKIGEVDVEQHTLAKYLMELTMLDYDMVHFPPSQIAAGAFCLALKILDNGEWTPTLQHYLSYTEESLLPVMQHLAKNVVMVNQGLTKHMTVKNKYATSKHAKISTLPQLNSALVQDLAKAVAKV

Chain of Glycogen synthase kinase-3 alpha (Homo sapiens) (P49840 2-483 limits assumed): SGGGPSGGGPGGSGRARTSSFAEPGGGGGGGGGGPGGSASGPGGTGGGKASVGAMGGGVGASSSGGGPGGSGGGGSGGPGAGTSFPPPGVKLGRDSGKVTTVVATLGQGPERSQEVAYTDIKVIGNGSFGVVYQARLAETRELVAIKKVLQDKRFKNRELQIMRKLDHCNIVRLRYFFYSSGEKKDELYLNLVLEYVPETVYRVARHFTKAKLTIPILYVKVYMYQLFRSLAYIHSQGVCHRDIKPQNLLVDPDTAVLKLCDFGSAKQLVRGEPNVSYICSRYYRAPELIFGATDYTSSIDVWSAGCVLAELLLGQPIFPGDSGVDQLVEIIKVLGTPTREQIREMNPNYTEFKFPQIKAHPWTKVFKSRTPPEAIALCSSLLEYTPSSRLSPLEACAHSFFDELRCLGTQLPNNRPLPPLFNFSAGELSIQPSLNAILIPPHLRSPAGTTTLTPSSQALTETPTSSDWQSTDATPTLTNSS
Chain of NT-3 growth factor receptor (Homo sapiens) (Q16288 32-839 limits assumed): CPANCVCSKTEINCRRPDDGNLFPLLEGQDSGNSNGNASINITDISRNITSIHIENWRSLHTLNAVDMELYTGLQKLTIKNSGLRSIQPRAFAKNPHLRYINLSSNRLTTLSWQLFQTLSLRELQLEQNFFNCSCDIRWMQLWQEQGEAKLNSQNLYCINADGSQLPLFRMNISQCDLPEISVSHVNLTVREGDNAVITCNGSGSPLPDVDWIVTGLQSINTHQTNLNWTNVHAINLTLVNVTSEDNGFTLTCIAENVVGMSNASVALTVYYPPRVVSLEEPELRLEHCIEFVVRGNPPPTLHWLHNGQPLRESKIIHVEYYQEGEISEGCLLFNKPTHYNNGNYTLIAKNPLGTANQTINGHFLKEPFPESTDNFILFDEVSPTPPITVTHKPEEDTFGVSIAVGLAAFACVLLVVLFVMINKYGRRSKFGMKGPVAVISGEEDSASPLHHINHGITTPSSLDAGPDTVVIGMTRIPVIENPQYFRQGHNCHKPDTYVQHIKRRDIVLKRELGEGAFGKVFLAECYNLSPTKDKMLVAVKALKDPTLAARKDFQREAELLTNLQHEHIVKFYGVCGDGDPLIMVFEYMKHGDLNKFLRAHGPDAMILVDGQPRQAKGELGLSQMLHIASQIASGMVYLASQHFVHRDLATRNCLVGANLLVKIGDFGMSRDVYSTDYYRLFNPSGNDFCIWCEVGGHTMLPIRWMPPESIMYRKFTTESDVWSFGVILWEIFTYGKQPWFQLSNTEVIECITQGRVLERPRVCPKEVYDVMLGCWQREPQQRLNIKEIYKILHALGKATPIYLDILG
Chain of Vascular endothelial growth factor receptor 1 (Homo sapiens) (P17948 whole entry): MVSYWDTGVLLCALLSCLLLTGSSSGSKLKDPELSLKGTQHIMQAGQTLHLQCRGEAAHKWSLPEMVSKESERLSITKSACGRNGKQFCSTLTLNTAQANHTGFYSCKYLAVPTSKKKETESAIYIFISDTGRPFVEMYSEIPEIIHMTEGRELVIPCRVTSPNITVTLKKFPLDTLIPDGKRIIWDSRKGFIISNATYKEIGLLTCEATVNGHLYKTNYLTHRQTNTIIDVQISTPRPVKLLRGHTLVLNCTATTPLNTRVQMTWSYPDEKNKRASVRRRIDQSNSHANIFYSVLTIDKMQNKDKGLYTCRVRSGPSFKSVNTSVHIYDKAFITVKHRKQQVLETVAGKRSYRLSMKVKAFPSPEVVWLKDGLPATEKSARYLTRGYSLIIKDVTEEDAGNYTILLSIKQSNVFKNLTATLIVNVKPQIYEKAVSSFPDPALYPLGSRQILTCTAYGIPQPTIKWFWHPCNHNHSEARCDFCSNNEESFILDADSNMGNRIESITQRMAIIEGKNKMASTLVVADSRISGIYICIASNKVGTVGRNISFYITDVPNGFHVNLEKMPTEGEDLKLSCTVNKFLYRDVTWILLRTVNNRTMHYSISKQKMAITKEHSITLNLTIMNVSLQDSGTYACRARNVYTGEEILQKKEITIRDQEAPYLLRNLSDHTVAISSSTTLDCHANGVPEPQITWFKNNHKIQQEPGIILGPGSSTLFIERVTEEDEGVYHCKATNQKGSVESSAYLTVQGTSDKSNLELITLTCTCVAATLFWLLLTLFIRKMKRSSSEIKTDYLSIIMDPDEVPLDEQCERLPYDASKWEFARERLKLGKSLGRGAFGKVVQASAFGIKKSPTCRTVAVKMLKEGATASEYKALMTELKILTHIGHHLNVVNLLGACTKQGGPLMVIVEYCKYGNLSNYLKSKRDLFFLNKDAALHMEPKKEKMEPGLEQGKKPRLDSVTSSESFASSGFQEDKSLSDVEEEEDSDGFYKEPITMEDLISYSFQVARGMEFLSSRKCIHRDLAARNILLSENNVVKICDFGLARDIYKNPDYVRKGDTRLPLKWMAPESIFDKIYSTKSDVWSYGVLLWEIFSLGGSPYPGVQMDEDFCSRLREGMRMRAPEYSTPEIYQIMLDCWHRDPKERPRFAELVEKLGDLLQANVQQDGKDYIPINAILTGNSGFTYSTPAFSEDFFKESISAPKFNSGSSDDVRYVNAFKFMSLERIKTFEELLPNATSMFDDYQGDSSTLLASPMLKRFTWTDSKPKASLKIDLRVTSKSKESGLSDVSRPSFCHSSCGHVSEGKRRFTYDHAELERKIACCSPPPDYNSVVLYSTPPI

inhibition [1] [%] | inhibition [2] [%] | inhibition [3] [%] | inhibition [4] [%] | inhibition [5] [%] | inhibition [6] [%] | inhibition [7] [%] | SMILES
-6.45 | 0.33 | 2.91 | 5.43 | 3.53 | 11.8 | -3.76 | COCCNC(=O)c1ccc2c(c1)nc(-c1cnc(-c3ccc(Cl)cc3)[nH]1)n2CCOC
-2.69 | 98 | 4.42 | 98.9 | 11 | 84.8 | 70.8 | CS(=O)(=O)c1cccc(Nc2nccc(-c3sc(N4CCOCC4)nc3-c3cccc(NS(=O)(=O)c4c(F)cccc4F)c3)n2)c1
-2.09 | 97.5 | 2.3 | 37.8 | 9.91 | 99.7 | 35.1 | CC(C)(C)c1cc(NC(=O)Nc2ccc(Oc3ccncc3)cc2)no1
